Read-outs that look alike come from different tables or passages of the source.
Tests used:
[1] = Tissue distribution in NCI-H1975 tumor-bearing mice; assay type: in vivo
Protocol: (§1) NCI-H1975 tumor-bearing mice with tumor burden of approximately 200 mm^3 were used in the pharmacokinetics and pharmacodynamics study. […] Blood samples were collected at 0 (pre-dose), 10, 30 min, 1, 2, 4, 8, and 24 h post-dose.
(§2) Ionization mode. Drug to internal standard peak area ratios for the standards were used to create a calibration curve using 1/×^2 weighted least-squares regression analysis. Concentrations of each analyte were quantified by comparing the ratios for each in-trial sample with those in the relevant calibration curve.

[2] = tested on: A431 (wild-type EGFR) tumor xenografts; assay: A431 xenograft model; assay type: in vivo, Nu/Nu nude mice; conditions: 5 mg/kg/day
Protocol: (§3) The female Nu/Nu nude mice were purchased from Beijing Vital River Laboratories. […] Nu/Nu nude mice were purchased from the Beijing Vital River Laboratories of China. The 6–8 weeks old female mice were inoculated subcutaneously at the right flank with approximately 3–5 × 10^6 tumor cells in 0.2 ml of medium. The treatments were started when the tumor size reached approximately 200 mm^3. […] All mice were orally administrated once daily for consecutive 14 days. Mouse body weight, tumor weight and tumor volume (TV) were measured twice per week. TV was then used for the calculation of tumor inhibitory rate and tumor regression rate.

[3] = Metabolite profiling in liver microsomes; assay type: in vitro ADME; conditions: incubation 60 min at 37°C; mouse, rat, dog, monkey and human liver microsomes
Protocol: Metabolite profiling was conducted in mouse, rat, dog, monkey, and human liver microsomes in vitro as well as in rat plasma, feces, and urine samples in vivo (From other experiments). […] All samples were analyzed by the LC/MS/MS (AB Sciex, API 5500 Qtrap) system. The structures of major metabolites were elucidated based on EPI spectra and further verified using authentic standards. The main metabolite Imp3 was quantified in multiple reaction monitoring mode in rat, dog and human clinical samples.

[4] = tested on: phosphorylation of EGFR and ERK; assay: Immunohistochemistry of tumor tissue from NCI-H1975 xenograft model; assay type: in vivo, Nu/Nu nude mice; conditions: 6–24 h
Protocol: Paraffin-embedded tumor tissues from each group were sectioned, mounted on positively charged glass slides, baked, deparaffinized, and rehydrated. Antigen retrieval was performed by heating slides in EDTA (pH 8.0) for 10 min. Sections were incubated in p-EGF Receptor ([…]) Rabbit antibody and Phospho-p44/42 MAPK (Erk1/2) (Thr202/Tyr204) (20G11) Rabbit antibody overnight at 4°C and then incubated with Anti-Rabbit IgG (H + L) at 37°C for 45 min. The sections were then stained with diaminobenzidine (DAB) and visualized.

[5] = tested on: NCI-H1975 (L858R/T790M) xenograft; assay: NCI-H1975 xenograft model; assay type: in vivo, Nu/Nu nude mice; conditions: for tumor growth inhibition rate: after 14 days of dosing, vs vehicle
Protocol: as §3

[6] = Plasma pharmacokinetics in NCI-H1975 tumor-bearing mice; assay type: in vivo; conditions: for AUC(0-t): po, read-out: AUC0–t in plasma
Protocol: as §1, §2

[7] = tested on: EGFR phosphorylation (pY1068) in PC-9 cells; assay: Phosphorylation of EGFR assay, time course; assay type: cell-based, human; conditions: 0.1 μmol/L, 1-10 h
Protocol: (§4) Cells (NCI-H1975/PC-9/[…]) were seeded into a 384-well plate (10,000 cells/well), grown for 24 h, and then treated with different test compounds (0.1 μmol/L) for 1, 2, 4, 6, 8 and 10 h. A431 cells were stimulated with 100 ng/ml EGF after incubation for 10 min. Cells were washed with ice-cold HBSS before extraction with 25 μl cell lysis buffer. Phosphorylation of EGFR was measured using a sandwich ELISA assay with phospho-specific EGFR (pY1068) antibodies [AlphaLISA SureFire p-EGF Receptor (Tyr1068) Assay Kit, PerkinElmer].

[8] = tested on: EGFR phosphorylation (pY1068) in A431 cells; assay: Phosphorylation of EGFR assay, time course; assay type: cell-based, human; conditions: 0.1 μmol/L, 1-10 h, EGF stimulated
Protocol: as §4

- blood-brain barrier penetration ([1]; pharmacokinetic experiments): could penetrate the blood-brain barrier
- number of metabolites detected [3]: 27
- AUC(0-t) ([6]; Nu/Nu nude, mouse, plasma, 2.5 mg/kg, 2.5 mg/kg oral daily, Day 14): 272 ng·h/mL
- AUC(0-t) ([6]; Nu/Nu nude, mouse, plasma, 2.5 mg/kg, 2.5 mg/kg oral, Day 1): 118 ng·h/mL
- AUC(0-t) ([6]; Nu/Nu nude, mouse, plasma, 5 mg/kg, 5 mg/kg oral daily, Day 14): 308 ng·h/mL
- AUC(0-t) ([6]; Nu/Nu nude, mouse, plasma, 5 mg/kg, 5 mg/kg oral, Day 1): 300 ng·h/mL
- AUC(0-t) ([6]; Nu/Nu nude, mouse, plasma, 15 mg/kg, 15 mg/kg oral daily, Day 14): 993 ng·h/mL
- AUC(0-t) ([6]; Nu/Nu nude, mouse, plasma, 15 mg/kg, 15 mg/kg oral, Day 1): 931 ng·h/mL
- Tmax ([6]; Nu/Nu nude, mouse, plasma, oral 2.5, 5 and 15 mg/kg): 1.5 to 2 h
- accumulation between Days 1–14 ([6]; oral daily dosing for 14 days): no significant accumulation
Compound: C=CC(=O)Nc1cc(Nc2nccc(-c3c4n(c5ccccc35)CCCC4)n2)c(OC)cc1N(C)CCN(C)C [SH-1028]
- distribution into tissues (tumor tissues, adjacent lung tissues and brain) ([1]; 15 mg/kg oral, within 2 h, Day 1): rapidly and extensively distributed into tissues
- tumor growth [2]: moderate tumor growth inhibition
- phosphorylation levels of EGFR and ERK in tumor tissues [4]: continuously inhibit the phosphorylation of EGFR and ERK
- tumor growth inhibition rate ([5]; 2.5 mg/kg oral once daily): 72.6%
- tumor growth inhibition rate ([5]; 5 mg/kg oral once daily): 91.8%
- tumor growth inhibition rate ([5]; 15 mg/kg oral once daily): 98.8%
- body weight ([5]; 2.5 to 15 mg/kg oral once daily, 14 days): no TKI-induced weight loss
- inhibitory effect on EGFR phosphorylation [7]: stronger than that of osimertinib
- inhibitory effect on EGFR phosphorylation [8]: weak inhibitory effect
